The results in this text go back to patent US6835754B2, “Use of aryl nitrone compounds in methods for treating neuropathic pain” (Renovis, Inc., priority 2001, dated 2004).

Entries after “also recorded” stand apart in the source; their conditions may differ.

Test [1] has as its system male Swiss Webster mice, phenylquinone-induced writhing. The experiment in a line: Phenylquinone (PQ) writhing assay, % inhibition (Swiss Webster mice). It is filed as in vivo. To be noted: Mus musculus, standard, read-out: % Inhibition of Writhing Response. On the technique in general: In writhing tests, fewer writhes than in controls are read as antinociception.
In test [2] the test system is Rats, Type II collagen assay. The experiment in a line: Hargreaves test (withdrawal latency to heat) in Type II collagen assay. It counts as in vivo. The note with it: rats Day 20 of Type II collagen assay. The method, then: The compound of Example 20 was further tested in a Hargreaves test, another accepted model for neuropathic pain.
Rats were tested on Day 20 in Type II collagen assay. […] Two hours after the 1st dose of drug on Day 20, animals were placed on a Hargreaves apparatus glass table. A high intensity light was placed under the one hind paw and illuminated, thus creating heat. At the same time, a clock was started. The light turned off, and the clock simultaneously stopped when the animal removed the paw. The time the rat is able to withstand the hear is considered withdrawal latency.

For test [3], the system named is Chronic constriction injury (CCI) rats. Put plainly: Bennett chronic constriction injury (CCI) mononeuropathy, cold allodynia assay. To be noted: 1 hr post-dose. It counts as in vivo, Sparague Dawley rats. The method, then:
The peripheral mononeuropathy was induced by loose ligation of the sciatic nerve in anaesthetized rats. Ten days later, the nociceptive threshold was evaluated. The test compound is administered orally 1 hour prior to pain measurement. For comparison, a predose threshold was determined and a control experiment using 1% methyl cellulose was run. […] Animals were again tested 1-2 hrs post-dose. Predose and postdose average scores are determined.
In a related experiment a dose-response relationship for the compound of Example 20 was determined using the same experimental protocol. […] Animals were again tested 1 hr post-dose.

Test [4] concerns ICR derived male mice, phenylquinone-induced writhing. The experiment in a line: Phenylquinone (PQ) Writhing assay, number of writhes (MDS Panlabs, ICR mice). It is filed as in vivo. To be noted: for # Writhes (X + SEM): per os, 60 min before PQ 2 mg/kg ip, vehicle 20.8 ± 0.7, **P<0.01. The method, then:
The compounds of Example 20 and Example 16 administered orally at doses of 10, 30 and 100 mg/kg. Vehicle of 2% Tween 80 in distilled water was used.
In this study, ICR derived male mice provided by animal breeding center of MDS Panlabs Taiwan, Ltd. were used. Space allocation for 10 animals was 45×23×15 cm. Mice were housed in APEC^R (Allentown Gaging, Allentown, N.J. 08501, U.S.A.) cages in a positive pressure isolation (NuAire^R, Mode: Nu-605, airflow velocity 50±5 ft/min, HEPA Filter) and maintained in a controlled temperature (22°-24° C.) and humidity (60%-80%) environment with 12 hour light dark cycles for at least one week in MDS Panlabs Taiwan laboratory prior to be used. Free access to standard lab chow for mice (Fwusow Industry Co., Limited, Taiwan) and tap water was granted. All aspects of this work including housing, experimentation and disposal of animals were performed in general accordance with the International Guiding Principles for Biomedical Research Involving Animals (CIOMS Publication No. ISBN 92 90360194, 1985).
The method of Siegmund, E. et al., Proc. Soc. Exp. Biol. Med. 95: 729-731, 1957, “A method for evaluating both non-narcotic and narcotic analgesics” was used. One hour after vehicle or compound administration, the number of writhes was recorded for each mouse in groups of 10 animals during a 5 to 10 minute period following 2 mg/kg. 1.p. of phenylquinone.
Groups of 10 male ICR mice weighing 22±2 gm were employed. Three doses (10, 30 and 100 mg/kg) of test substances suspended in a vehicle of 2% Tween 80 were administered per os. The control group received vehicle alone. […] The mean±SEM value of writhing number for each treatment group was then calculated and Dunnett's test was applied for comparison between vehicle and treated groups. Differences were considered significant when P<0.01.

The test system of test [5] is male Swiss Webster mice, phenylquinone-induced writhing. Put plainly: Phenylquinone (PQ) writhing assay, % inhibition (Swiss Webster mice). It counts as in vivo. The note with it: Mus musculus; 30 mg/kg orally in 1% methyl cellulose, 1 hour before PQ 2 mg/kg ip; read-out: % Inhibition of Writhing Response. The method, then:
Test compounds were prepared as a suspension in 1% methyl cellulose and dosed orally at a dose of 30 mg/kg to male Swiss Webster mice weighing between 15 and 25 g with 10 mice per group. Test compounds was given 1 hour before the injection of phenylquinone. Phenylquinone (Sigma) was injected intraperitoneally at a dose of 2 mg/kg. After a 5 minute acclimation period, the number of writhes was counted for a 5 minute observation period for each mouse. The total number of writhes for each test compound was compared with a vehicle group. Results were expressed as % inhibition compared to the vehicle treated group means (Table VII).
In related experiment, a dose response relationship was established for the compound of Example 1 using the same experimental protocl as above. […] This is shown graphically in FIG. 2.

Usually inhibition stands for the percentage by which the read-out fell short of the control. Turning to `C[C@@H]1C[C@H]2[C@@H]3CCC4=CC(=O)C=C[C@]4(C)[C@@]3(F)[C@@H](O)C[C@]2(C)[C@@]1(O)C(=O)CO` [Dexamethasone], the inhibition at 1 mg/kg in test [1] (1 mg/kg) came to 62%.

The term ED50 denotes the midpoint of the dose-response relation. High values mean a need for a large dose, low ones an effect at a small dose. In the case of `CC(C)(C)c1cc(C=[N+]([O-])C(C)(C)C)cc(C(C)(C)C)c1O` [Example 20, α-(4-hydroxy-3,5-di-tert-butylphenyl)-N-tert-butylnitrone], the ED50 in test [2] (Rattus norvegicus, po, two hours after dose) is 6.25 mg/kg. Moreover, the “activity in Hargreaves test (withdrawal latency)” value in test [2] (doses of 10-100 mg/kg, FIG. 5) is given as “Significant activity; also recorded: does exhibit activity”. Moreover, the “postdose latency score over vehicle, cold allodynia” value in test [3] (30 mg/kg p.o., p<0.05 vs. vehicle postdose) is given as “significant postdose latency score over vehicle”; in test [3] (100 mg/kg p.o., p<0.01 vs. vehicle postdose) it was “significant postdose latency score over vehicle”. Also, the “latency in the cold allodynia assay” value in test [3] (various doses (10, 30, 100 mg/kg, p.o.), FIG. 4) is reported as “increased latency”. The “analgesia relative to vehicle control group (PQ writhing)” value in test [4] (100, 30 and 10 mg/kg orally, P<0.01 for all 3 doses, Dunnett's test) is “significant”. In addition, the “# Writhes (X + SEM)” value in test [4] (Dose 30 mg/kg) is given as 0.9 ± 0.5**; in test [4] (Dose 10 ml/kg as printed) it was 3.1 ± 1.4**; in test [4] (Dose 100 ml/kg as printed), 0.3 ± 0.2**. Moreover, the inhibition at 30 mg/kg in test [5] worked out at 62%.

With `COc1ccc2c(c1)c(CC(=O)O)c(C)n2C(=O)c1ccc(Cl)cc1` [Indomethacin], the inhibition at 3 mg/kg in test [1] (3 mg/kg) was 93%.
